IC50 and MIC data for two compounds are collected here from ChEMBL document CHEMBL1148095, “6-Hydroxymanzamine A and 3,4-dihydromanzamine A, new alkaloids from the Okinawan marine sponge Amphimedon Sp” (J Nat Prod, 1994).

One assay deals with L1210. The assay is described as follows: Cytotoxicity against mouse L1210 cells. The assay is classed as functional, cell-based.
The next assay has as its system KB. Nature of the assay: Cytotoxicity against human KB cells. The assay is classed as functional, cell-based.
For the next assay, the system named is Micrococcus luteus. Nature of the assay: Antibacterial activity against Sarcina lutea. It counts as functional.

≈ marks a conversion by molar mass, not a printed value.

Usually IC50 stands for the point on the concentration scale where inhibition reaches its midpoint. Broadly, the MIC is the lowest concentration found to suppress growth. High values mean a need for much substance, low ones inhibition by little substance. As to `Oc1ccc2[nH]c3c(C4=C[C@@]5(O)CC/C=C\CCCCN6CCC4[C@]4(C[C@@H]7/C=C\CCCCN7[C@H]45)C6)nccc3c2c1` (stereo partly specified), the half-inhibitory concentration (IC50) in the assay with L1210 amounted to 1.5 µg/mL (≈ 2.66 µM); with KB, 2.5 µg/mL (≈ 4.43 µM). For the same compound, 1.25 µg/mL (≈ 2.21 µM) was the least that counted as inhibitory in the assay on Micrococcus luteus (MIC).
The matching figures for `O[C@]12C=C(C3=NCCc4c3[nH]c3ccccc43)[C@@H]3CCN(CCCC/C=C\CC1)C[C@@]31C[C@@H]3/C=C\CCCCN3[C@H]12` [3,4-DIHYDROMANZAMINE A]: 0.48 µg/mL (≈ 0.871 µM), 0.61 µg/mL (≈ 1.11 µM) and 4 µg/mL (≈ 7.26 µM).
